The record followed here is paper PMC10977697 (PLOS ONE, 2024).

Where no end group is shown, it is not given here.

The assay concerns EpCAM. Description: Spot phage ELISA, EpCAM. The format is binding, human. Conditions: spot phage ELISA signal-to-noise on EpCAM. (ELISA stands for enzyme-linked immunosorbent assay.)
Consider “GPTQSHYGQCGGLGYHGAIMCSGTTCQYAPIVTSQCLPGAS (disulfide (positions not given here)) [EpCAM CBD 52]”, for which the S/N stood at 9.8.

On to “GPTQSHYGQCGGIGYMGAIQCSGTTCQPIFLRNSQCLPGAS (disulfide (positions not given here)) [EpCAM CBD 6]”, for which the S/N is given as 22.6.

Consider “GPTQSHYGQCGGSGYPGHFLCSGTTCQTPRSWSSQCLPGAS (disulfide (positions not given here)) [EpCAM CBD 82]”, for which the S/N worked out at 6.9.

In turn, “GPTQSHYGQCGGYVGAIMCSGTTCQFQHVKQSQCLPGAS (disulfide (positions not given here)) [EpCAM CBD 38]” returned a S/N of 12.9.

“GPTQSHYGQCGGFGYQGAVVCSGTTCQFTHLGHSQCLPGAS (disulfide (positions not given here)) [EpCAM CBD 88]” returned a S/N of 5.9.

“GCPRILMRCKQDSDCQPVCG (disulfide (positions not given here)) [EpCAM EET I-II 5]” had a S/N of 22.8.

Consider “GPTQSHYGQCGGMGYQGMIKCSGTTCQYVARQASQCLPGAS (disulfide (positions not given here)) [EpCAM CBD 47]”, for which the S/N turned out to be 10.5.

Turning to “GPTQSHYGQCGGLGYAGAIVCSGTTCQYTIRNPSQCLPGAS (disulfide (positions not given here)) [EpCAM CBD 65]”, the S/N came out at 8.6.

For the sequence “GPTQSHYGQCGGRGYPGFIRCSGTTCQFVQSVQSQCLPGAS (disulfide (positions not given here)) [EpCAM CBD 78]”, the S/N stood at 7.4.

For “GPTQSHYGQCGGSGYWGAIACSGTTCQMVKLPYSQCLPGAS (disulfide (positions not given here)) [EpCAM CBD 69]”, the S/N worked out at 8.5.

Regarding “GPTQSHYGQCGGKGYFGIRCSGTTCQMVTYKPSQCLPGAS (disulfide (positions not given here)) [EpCAM CBD 33]”, the S/N is given as 15.1.

The sequence “GCPRILMRCKQDSDCQPFCG (disulfide (positions not given here)) [EpCAM EET I-II 6]” displayed a S/N of 22.2.

For the sequence “GCPRILMRCKQDSDCQPVCG (disulfide (positions not given here)) [EpCAM EET I-II 10]”, the S/N amounted to 21.9.

On to “GPTQSHYGQCGGQGYIGAIMCSGTTCQMRSLPASQCLPGAS (disulfide (positions not given here)) [EpCAM CBD 20]”, for which the S/N was found to be 17.5.

“GPTQSHYGQCGGKGYNGYFVCSGTTCQWKAKTDSQCLPGAS (disulfide (positions not given here)) [EpCAM CBD 15]” displayed a S/N of 19.3.

With “GPTQSHYGQCGGRGYPGAVICSGTTCQYHQATRSQCLPGAS (disulfide (positions not given here)) [EpCAM CBD 73]”, the S/N turned out to be 7.8.

As for “GPTQSHYGQCGGKGYQGAMKCSGTTCQYIFFPTSQCLPGAS (disulfide (positions not given here)) [EpCAM CBD 64]”, the S/N is given as 8.6.

In the case of “GPTQSHYGQCGGDGYHGAIHCSGTTCQYVMMNRSQCLPGAS (disulfide (positions not given here)) [EpCAM CBD 59]”, the S/N was 8.9.

The sequence “GCPRILMRCKQDSDCHWVCG (disulfide (positions not given here)) [EpCAM EET I-II 39]” gave a S/N of 6.6.

“GCPRILMRCKQDSDCHWFCG (disulfide (positions not given here)) [EpCAM EET I-II 15]” had a S/N of 20.7.

As to “GCHRWGILCKQDSDCLAGCVCWQQGQCG (disulfide (positions not given here)) [EpCAM EET I-II 35]”, the S/N was 15.

Sequence “GPTQSHYGQCGGTGYHGVMLCSGTTCQLWAHPLSQCLPGAS (disulfide (positions not given here)) [EpCAM CBD 11]” came in with a S/N of 20.6.

In turn, “GCPRILMRCKQDSDCHPVCG (disulfide (positions not given here)) [EpCAM EET I-II 20]” displayed a S/N of 19.5.

For the sequence “GPTQSHYGQCGGVGYVGSILCSGTTCQFTKVRTSQCLPGAS (disulfide (positions not given here)) [EpCAM CBD 50]”, the S/N came to 9.9.

For the sequence “GPTQSHYGQCGGPGYPGYIRCSGTTCQWIHSRTSQCLPGAS (disulfide (positions not given here)) [EpCAM CBD 89]”, the S/N was found to be 5.8.

For “GCPRILMRCKQDSDCLAGCVCPGNILCG (disulfide (positions not given here)) [EpCAM EET I-II 29]”, the S/N amounted to 17.9.

As to “GPTQSHYGQCGGQGYHGAILCSGTTCQYTMISRSQCLPGAS (disulfide (positions not given here)) [EpCAM CBD 5]”, the S/N is recorded as 22.8.

“GPTQSHYGQCGGPGYQGFIVCSGTTCQYRQPSESQCLPGAS (disulfide (positions not given here)) [EpCAM CBD 2]” gave a S/N of 24.7.

The sequence “GPTQSIYGVCGGIGYVGGRYCSGTTCQIPEKYKSQCLPGAS (disulfide (positions not given here)) [EpCAM CBD 45]” displayed a S/N of 11.1.

Sequence “GCPRILMRCKQDSDCQAFCG (disulfide (positions not given here)) [EpCAM EET I-II 23]” gave a S/N of 18.7.

Consider “GCRNTMVRCKQDSDCLAGCVCYFDPSCG (disulfide (positions not given here)) [EpCAM EET I-II 33]”, for which the S/N is 15.8.

“GCKNDKIRCKQDSDCLAGCVCWEDPSCG (disulfide (positions not given here)) [EpCAM EET I-II 22]” gave a S/N of 18.9.

“GCPRILMRCKQDSDCMPVCG (disulfide (positions not given here)) [EpCAM EET I-II 4]”: the S/N is 23.

“GPTQSHYGQCGGWGYQGWAICSGTTCQAQLSHKSQCLPGAS (disulfide (positions not given here)) [EpCAM CBD 83]” showed a S/N of 6.8.

As to “GPTQSHYGQCGGDGYTGMIRCSGTTCQFVAKKHSQCLPGAS (disulfide (positions not given here)) [EpCAM CBD 40]”, the S/N came out at 11.8.

For the sequence “GPTQSHYGQCGGPGYLGVIVCSGTTCQYQLRPTSQCLPGAS (disulfide (positions not given here)) [EpCAM CBD 70]”, the S/N was determined as 8.4.

For the sequence “GPTQSHYGQCGGPGYTGVIKCSGTTCQFVNLPRSQCLPGAS (disulfide (positions not given here)) [EpCAM CBD 51]”, the S/N amounted to 9.8.

“GPTQSHYGQCGGEGYLGALRCSGTTCQYTQIKPSQCLPGAS (disulfide (positions not given here)) [EpCAM CBD 8]” returned a S/N of 21.8.

Take “GPTQSHYGQCGGKGYFGAIVCSGTTCQSTQKYASQCLPGAS (disulfide (positions not given here)) [EpCAM CBD 62]”: the S/N worked out at 8.8.

In turn, “GPTQSHYGQCGGSGYYGVIVCSGTTCQYVNRKPSQCLPGAS (disulfide (positions not given here)) [EpCAM CBD 36]” came in with a S/N of 13.1.

“GPTQSHYGQCGGQGYHGYIMCSGTTCQYYTPYTSQCLPGAS (disulfide (positions not given here)) [EpCAM CBD 68]”: the S/N is 8.5.

On to “GPTQSHYGQCGGTGYPGAMVCSGTTCQLFELXVSQCLPGAS (disulfide) [EpCAM CBD 74]”, for which the S/N is recorded as 7.8.

Sequence “GCPRILMRCKQDSDCLCGCV (disulfide (positions not given here)) [EpCAM EET I-II 11]” gave a S/N of 21.4.

Sequence “GPTQSHYGQCGGVGYHGAIQCSGTTCQEVKMTRSQCLPGAS (disulfide (positions not given here)) [EpCAM CBD 3]” displayed a S/N of 23.5.

For the sequence “GPTQSVIGPCGGIGYVGGRYCSGTTCQMPTSYRSQCLPGAS (disulfide (positions not given here)) [EpCAM CBD 35]”, the S/N amounted to 14.4.

Take “GCPRILMRCKQDSDCQAVCG (disulfide (positions not given here)) [EpCAM EET I-II 27]”: the S/N came out at 18.1.

As for “GCRARPLVCKQDSDCLAGPNGFCG (disulfide (positions not given here)) [EpCAM EET I-II 24]”, the S/N is 18.6.

“GPTQSHYGQCGGQGYHGMIRCSGTTCQWVPMVRSQCLPGAS (disulfide (positions not given here)) [EpCAM CBD 39]” came in with a S/N of 12.6.

Consider “GPTQSHYGQCGGRGYVGGIKCSGTTCQOVHAHPSQCLPGAS (disulfide) [EpCAM CBD 72]”, for which the S/N stood at 8.0.

In turn, “GCPRILMRCKQDSELSSWLCLCCSGSLC (disulfide (positions not given here)) [EpCAM EET I-II 26]” yielded a S/N of 18.3.

The sequence “GPTQSHYGQCGGLGYVGAMQCSGTTCQYVVRNFSQCLPGAS (disulfide (positions not given here)) [EpCAM CBD 28]” had a S/N of 16.2.

In turn, “GPTQSHYGQCGGTGYVGMFKCSGTTCQYVYSSASQCLPGAS (disulfide (positions not given here)) [EpCAM CBD 67]” came in with a S/N of 8.5.

“GCPRILMRCKQDSDCEAICG (disulfide (positions not given here)) [EpCAM EET I-II 8]” showed a S/N of 21.9.

In turn, “GPTQSHYGQCGGSGYKGAIKCSGTTCQLVTVHVSQCLPGAS (disulfide (positions not given here)) [EpCAM CBD 46]” yielded a S/N of 10.7.

“GPTQSHYGQCGGPGYFGXVVCSGTTCQFAHIHRSQCLPGAS (disulfide) [EpCAM CBD 85]” displayed a S/N of 6.6.

The sequence “CKQDSDCLLVCLGPNGFCG (disulfide (positions not given here)) [EpCAM EET I-II 28]” had a S/N of 18.

As to “GPTQSHYGQCGGKGYHGFIRCSGTTCQVVYPEKSQCLPGAS (disulfide (positions not given here)) [EpCAM CBD 58]”, the S/N was 9.2.

“GPTQSHYGQCGGYGYPGLACSGTTCQYTYYMRSQCLPGAS (disulfide (positions not given here)) [EpCAM CBD 71]” returned a S/N of 8.3.

With “GCMQWYIWCKQDSDCLAGCLYRSLPLD (disulfide (positions not given here)) [EpCAM EET I-II 9]”, the S/N came to 21.9.
